Our source for the inhibition and Activity values is ChEMBL document CHEMBL4118135, “Optimized allosteric inhibition of engineered protein tyrosine phosphatases with an expanded palette of biarsenical small molecules” (Bioorg Med Chem, 2018).

As a reminder, the inhibition is the relative decrease from the control value, in per cent.

The target in assay [1] is T1, Tyrosine-protein phosphatase non-receptor type 1 (Homo sapiens) (UniProt P18031).
T1 sequence (whole entry): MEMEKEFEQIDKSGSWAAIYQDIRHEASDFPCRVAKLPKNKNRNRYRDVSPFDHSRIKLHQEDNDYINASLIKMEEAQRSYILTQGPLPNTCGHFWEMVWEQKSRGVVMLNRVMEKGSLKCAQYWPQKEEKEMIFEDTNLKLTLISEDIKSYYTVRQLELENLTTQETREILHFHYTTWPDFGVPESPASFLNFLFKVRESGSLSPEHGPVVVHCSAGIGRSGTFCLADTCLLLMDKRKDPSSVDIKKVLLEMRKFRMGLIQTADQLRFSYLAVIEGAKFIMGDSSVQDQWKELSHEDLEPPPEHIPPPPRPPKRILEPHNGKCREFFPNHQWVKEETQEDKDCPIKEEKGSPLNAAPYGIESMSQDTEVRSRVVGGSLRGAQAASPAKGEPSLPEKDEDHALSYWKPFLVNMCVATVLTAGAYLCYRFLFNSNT
The assay can be described thus: Inhibition of His6-tagged human wild-type PTP1B catalytic domain at 2000 nM using pNPP as substrate incubated for 90 mins by quenched phosphatase activity assay.

Assay [2] deals with T2, Tyrosine-protein phosphatase non-receptor type 1 (Homo sapiens), P18031 [P87C,A122C].
T2 sequence (whole entry): T1 sequence (whole entry) with P87C, A122C
The assay can be described thus: Inhibition of allosterically sensitized His6-tagged human PTP1B catalytic domain P87C/A122C mutant at 2000 nM using pNPP as substrate incubated for 10 to 40 mins by quenched phosphatase activity assay. The note with it: TDE = time-dependent effect.

The test system is the same in assay [3]. The assay can be described thus: Inhibition of allosterically sensitized His6-tagged human PTP1B catalytic domain P87C/A122C mutant at 2000 nM using pNPP as substrate incubated for =.
Assay [4] has as its target T1, Tyrosine-protein phosphatase non-receptor type 1 (Homo sapiens). The assay can be described thus: Inhibition of His6-tagged human wild-type PTP1B catalytic domain overexpressed in Escherichia coli crude cell lysate using pNPP as substrate incubated for 90 mins by quenched phosphatase activity assay.
For assay [5], the system named is T2, Tyrosine-protein phosphatase non-receptor type 1 (Homo sapiens), P18031 [P87C,A122C]. The assay can be described thus: Binding affinity to allosterically sensitized His6-tagged human PTP1B catalytic domain P87C/A122C mutant overexpressed in Escherichia coli crude cell lysate incubated for 90 mins by SDS-PAGE and LC-MS/MS method.
The test system of assay [6] is T3, Tyrosine-protein phosphatase non-receptor type 7 (Homo sapiens), P35236 [P171C,V205C].
T3 sequence (whole entry): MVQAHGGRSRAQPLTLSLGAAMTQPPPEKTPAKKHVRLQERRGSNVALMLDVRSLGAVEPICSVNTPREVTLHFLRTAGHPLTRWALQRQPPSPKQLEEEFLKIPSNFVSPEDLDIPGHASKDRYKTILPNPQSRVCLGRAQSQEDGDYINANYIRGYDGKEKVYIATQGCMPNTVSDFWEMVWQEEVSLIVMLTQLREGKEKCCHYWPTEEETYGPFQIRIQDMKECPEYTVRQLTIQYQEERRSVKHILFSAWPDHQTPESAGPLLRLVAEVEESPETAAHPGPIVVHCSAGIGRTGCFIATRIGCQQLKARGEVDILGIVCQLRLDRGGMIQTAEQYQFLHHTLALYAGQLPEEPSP
The assay can be described thus: Inhibition of allosterically sensitized mutant form of His6-tagged human HePTP catalytic domain using pNPP as substrate incubated for 90 mins by quenched phosphatase activity assay.

Assay [7] concerns the target T4, Tyrosine-protein phosphatase non-receptor type 7 (Homo sapiens) (UniProt P35236).
T4 sequence (whole entry): T3 sequence (whole entry) with C171P, C205V
The assay can be described thus: Inhibition of His6-tagged human wild-type HePTP catalytic domain overexpressed in Escherichia coli crude cell lysate at 2000 nM using pNPP as substrate incubated for 90 mins by quenched phosphatase activity assay.

For assay [8], the system named is T3, Tyrosine-protein phosphatase non-receptor type 7 (Homo sapiens), P35236 [P171C,V205C]. The assay can be described thus: Binding affinity to allosterically sensitized mutant form of His6-tagged human HePTP catalytic domain overexpressed in Escherichia coli crude cell lysate at 25 to 100 uM using pNPP as substrate after 90 mins by SDS-PAGE and LC-MS/MS method.

Assay [9] has the same test system. The assay can be described thus: Binding affinity to allosterically sensitized mutant form of His6-tagged human HePTP catalytic domain overexpressed in Escherichia coli crude cell lysate at 100 uM after 90 mins by SDS-PAGE analysis.
The test system is the same in assay [10]. The assay can be described thus: Inhibition of allosterically sensitized mutant form of His6-tagged human HePTP catalytic domain overexpressed in Escherichia coli BL21(DE3) cells using pNPP as substrate incubated for 90 mins by quenched phosphatase activity assay.
For assay [11] the test system is unchanged. The assay can be described thus: Binding affinity to allosterically sensitized mutant form of His6-tagged human HePTP catalytic domain overexpressed in Escherichia coli BL21(DE3) cells at 50 to 100 uM after 90 mins by SDS-PAGE analysis.
In assay [12] the test system is Tyrosine-protein phosphatase non-receptor type 7 (Homo sapiens), P35236 [UNDEFINED MUTATION]. The assay can be described thus: Inhibition of allosterically sensitized mutant form of His6-tagged human wild-type HePTP catalytic domain at 1.92 uM using pNPP as substrate incubated for 90 mins by quenched phosphatase activity assay.
Chain of Tyrosine-protein phosphatase non-receptor type 7 (Homo sapiens), P35236 [UNDEFINED MUTATION] (P35236 whole entry, looked up, stated change not applied, the tested form may be a part): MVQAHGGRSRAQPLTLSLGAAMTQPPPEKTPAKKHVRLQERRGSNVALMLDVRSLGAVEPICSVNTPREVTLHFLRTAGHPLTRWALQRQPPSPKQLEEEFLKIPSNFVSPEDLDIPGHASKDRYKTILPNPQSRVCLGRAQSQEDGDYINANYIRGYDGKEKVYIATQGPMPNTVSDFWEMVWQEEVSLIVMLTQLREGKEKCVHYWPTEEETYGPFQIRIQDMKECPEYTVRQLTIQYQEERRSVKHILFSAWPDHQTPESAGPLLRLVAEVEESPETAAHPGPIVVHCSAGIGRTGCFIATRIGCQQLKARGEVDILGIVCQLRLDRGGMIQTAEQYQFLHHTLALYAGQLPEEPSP
Assay [13] concerns T3, Tyrosine-protein phosphatase non-receptor type 7 (Homo sapiens), P35236 [P171C,V205C]. The assay can be described thus: Inhibition of allosterically sensitized mutant form of His6-tagged human HePTP at 1000 nM using pNPP as substrate measured at 5 mins by quenched phosphatase activity assay.
For assay [14], the system named is Tyrosine-protein phosphatase non-receptor type 7 (Homo sapiens), P35236 [UNDEFINED MUTATION]. The assay can be described thus: Inhibition of Inhibition of allosterically sensitized mutant form of His6-tagged […] human HePTP catalytic domain overexpressed in Escherichia coli BL21(DE3) cells at 25 uM using pNPP as substrate incubated for 90 mins by quenched phosphatase activity assay.

Assay [15] addresses T4, Tyrosine-protein phosphatase non-receptor type 7 (Homo sapiens). The assay can be described thus: Inhibition of His6-tagged wild type human HePTP catalytic domain overexpressed in Escherichia coli BL21(DE3) cells at 25 uM using pNPP as substrate incubated for 90 mins by quenched phosphatase activity assay.

Numbering of substitutions follows the chain as printed. The source made the active and inactive calls. The rule behind the calls is not given here.

For the compound `CC1(C)C(/C=C/C=C2/N(CCCCS(=O)(=O)O)c3ccc([As]4SCCS4)cc3C2(C)C)=[N+](CCCCS(=O)(=O)O)c2ccc([As]3SCCS3)cc21`, the inhibition entry in [1] and in assay [4] was “inactive” each time. Moreover, the inhibition entry in [2] was “Tde”; in assay [3], 50%. The Activity entry in [5] was “Dose-dependent effect”.

Consider `O=C(O)c1ccccc1-c1c2ccc(=O)c([As]3SCCS3)c-2oc2c([As]3SCCS3)c(O)ccc12`, for which the inhibition entry in assay [6] was “Dose-dependent effect”; in [10], “Dose-dependent effect”; in assay [12], 50%; in assay [13], 70%. The inhibition entry in assay [7] and in assay [15] was “inactive” throughout. For the same compound, the outcome in assay [8] and in [11] was Active. Further, the result in assay [9] was inactive. For the same compound, in assay [14], the inhibition result is “Active”.
